Experimental data as given in patent US20220273690A1, “Edible Formulations Based on Active Ingredients and Arginine” (GRAAL S.R.L., priority 2019, published 2022).
Converted amounts (≈) assume the structure as drawn.

Tests used:
[1] = cited from earlier work
[2] = cited from earlier work; remark: listed apart in the source
[3] = Neutralization of an aqueous solution of SAM-e tosylate with buffering agents to pH 7; assay type: physicochemical; conditions: for Stabilization time / Initial pH: SAMe tosylate 400 mg/100 mL; for Final pH: SAMe tosylate 400 mg/100 mL after addition of the neutralizing agent; for Initial pH: before addition of the neutralizing agent; for Neutralizing agents added amount: added to SAMe tosylate 400 mg/100 mL until neutralization
Method: (§1) After measuring the pH, the solution was gradually added with buffering substance until neutralization and a pH 7 value were reached. As it can be seen from the table below (Table 9), the amount of Lysine and Potassium Citrate tribasic appear to be excessive to consider their use in commercial pharmaceutical forms. More precisely, from the table it can be noted that 15.4 g of Lysine fail to bring the SAMe solution to neutralization (the pH value remains 4).
SAMe tosilate concentration: 400 mg/100 mL

[4] = Neutralization of aqueous solutions of other acid active ingredients with L-Arginine; assay type: physicochemical; conditions: aqueous solution containing 1 g of the active ingredient
From the text: as §1
Based on the excellent neutralization results obtained with L-Arginine, the same method was used to analyze the amount of L-Arginine necessary to neutralize a solution including other acid active ingredients (results below): • An aqueous solution containing 1 g of N-Acetyl-Cysteine is neutralized with 1.086 g of L-Arginine • An aqueous solution containing 1 g of L-Acetyl-Carnitine is neutralized with 0.736 g of L-Arginine

SMILES | pKa [1] | Solubility in water [2] [µg/mL] | Final pH [3] | Initial pH [3] | Neutralizing agents added amount [3] [mg] | further results
N[C@@H](CCC(=O)O)C(=O)O [Glutamic acid] | 1.88 | – | – | – | – | –
CC(C)(O)CC(=O)O [Hydroxy-methyl-butyrate, 3-hydroxy-3-methylbutyric acid] | 4.4 | 15000 (≈ 127 mM) | – | – | – | –
O=C([O-])O.[Na+] [Sodium bicarbonate] | – | – | 7.0 | 2.08 | 690 | Stabilization time [3]: <3 min
O=C1O[C@H]([C@@H](O)CO)C(O)=C1O [Ascorbic Acid] | 4.36 | – | – | – | – | –
O=C([O-])CC(O)(CC(=O)[O-])C(=O)[O-].[K+].[K+].[K+] [Potassium citrate tribasic] | – | – | 7.0 | 2.10 | 14943 | Stabilization time [3]: <3 min
C[N+](C)(C)C[C@H](O)CC(=O)[O-] [Levocarnitine] | 4.2 | 5330 (≈ 33.1 mM) | – | – | – | –
N[C@@H](CC(=O)O)C(=O)O [Aspartic Acid] | 1.7 | – | – | – | – | –
O=P([O-])([O-])[O-].[Na+].[Na+].[Na+] [Sodium phosphate tribasic] | – | – | 7.0 | 2.09 | 510 | Stabilization time [3]: <3 min
[O]=[Mg] [Light magnesium oxide] | – | – | 7.1 | 2.08 | 44.91 | –
CC(=O)SC[C@H](NC(=O)CC[C@H](N)C(=O)O)C(=O)NCC(=O)O [S-acetyl-L-glutatione] | 1.75 | – | – | – | – | –
O=C([O-])[O-].[Na+].[Na+] [Sodium carbonate] | – | – | 7.0 | 2.10 | 200 | Stabilization time [3]: <3 min
N=C(N)NCCC[C@H](N)C(=O)O [Arginine] | – | – | 7.0 | 2.08 | 375 | –
CC(=O)O[C@H](CC(=O)[O-])C[N+](C)(C)C [L-Acetyl Carnitine] | 4.09 | 142000 (≈ 699 mM) | – | – | – | Amount of L-Arginine needed to neutralize [4]: 0.736 g
CC(=O)N[C@@H](CS)C(=O)O [N-Acetyl Cysteine] | – | 5090 (≈ 31.2 mM) | – | – | – | Amount of L-Arginine needed to neutralize [4]: 1.086 g
NCCCC[C@H](N)C(=O)O [Lysine] | – | – | 4 | 2.08 | 15402 | Amount of neutralizing agent added ([3]; SAMe solution, neutralization not reached): 15.4 g
CC(=O)Oc1ccccc1C(=O)O [Acetylsalicylic acid] | – | 1460 (≈ 8.1 mM) | – | – | – | –
C[S+](CC[C@H](N)C(=O)[O-])C[C@H]1O[C@@H](n2cnc3c(N)ncnc32)[C@H](O)[C@@H]1O (stereo partly drawn) [SAMe, S-Adenosyl-l-methionine] | 1.7 | 1190 (≈ 2.99 mM) | – | – | – | –
O=C(O)CCCC[C@@H]1CCSS1 (racemic) [Lipoic acid] | 4.52 | – | – | – | – | –
